Target: Cav2.3 (Homo sapiens, UniProt Q15878)
Assay: Human Cav2.3 channel calcium-influx assay
Type: cell-based
Conditions: HEK-293 T-Rex/Kir2.1/Cav2.3e-β4-α2δ1 cells, Fluo8 fluorescence, without pluronic acid; read-out: Cav2.3 (pIC50) (converted)
Protocol: HEK-293 T-Rex cells were transfected with pcDNA3.1-Kir2.1 to generate a stable cell line. After antibiotic selection, the obtained stable pools were analysed using FLIPR^TETRA (membrane potential assay), and a limiting dilution was performed and a HEK-293 T-Rex/Kir2.1 clone was selected. The clone was transfected with pcDNA3.1-Cav2.3e and pBud-Cav-β4-α2δ1 to generate a stable cell line where the Cav2.3e expression is inducible. After antibiotic selection, functional clone pool analysis and two successive limiting dilutions, the final clone underwent a qPCR analysis and a biophysical and pharmacological validation using patch-clamp.
A compound plate, containing 10 test compounds in eight-points dose response with n=4, was prepared. Test compounds dose response curves were prepared in automated fashion in 100% DMSO at CyBio Felix and starting from a stock solution in 100% DMSO; a defined volume was serially moved into destination wells pre-filled with the desired DMSO volume; stock solution concentration volumes were dependent on the final compounds concentrations to be tested and the final DMSO content used in the assay. For the assay test compounds dose response curves ranged from 30 μM and half log dilution with 0.3% final DMSO. In order to obtain the 8-points dose response curve all the concentrations were created by starting from a 10 mM DMSO stock solution and then moving 9.5 μL into a destination well pre-filled with 20.5 μL of 100% DMSO and repeating this step seven times. This initial step was done into 96 MTP plates, 10 compounds/plate. One 384 MTP was then reformatted to contain all the 10 compounds at 8 concentrations, quadruplicate data points. This so obtained 384 MTP compound plate served as source plate in a “mother to child” process with a CyBi®-Well dispenser in which 0.7 μL of compounds were moved into a destination plate pre-filled with 57.6 μL of Tyrode's buffer 0 mM K+, thus obtaining 4× concentrated compounds solution. In columns 1-2 and 23-24 the control wells were added. Both “source” compound plate and “destination” compound plate were barcoded and a relationship between the two plates was thus generated.
The day before the experiment, cells were detached by gentle wash with DPBS, followed by 5 min incubation at 37° C. with Trypsin solution. Detached cells were diluted with OptiMEM+Doxycycline at 0.2 μg/mL, counted and plated in Poly-D-Lysine coated black/clear bottom (15.000 c/well in 20 μl/well) by the use of a MATRIX WellMate dispenser. Plates were placed into a humidified incubator at 37° C. with 5% CO2 until the experimental day. 24 h after seeding 10 μL/well of 1.5× Fluo8 NW dye solution prepared in Tyrode's buffer 0 mM K^+ were added on top of the seeding medium. Cell plates were incubated for 40-60 min at RT in the dark. We then Injected off-line 10 μL/well of test compounds and controls 4× concentrated in Tyrode's Buffer 0 mM K+ with the CyBi®-Well instrument. Cell plates were incubated 3 minutes at RT. Finally, we injected 20 μL/well of 3× concentrated activator solution (K20-Na130-Ca2 buffer: 20 mM KCl, 130 mM NaCl, 2 mM CaCl2, 10 mM HEPES, 10 mM Glucose, final concentrations, prepared starting from “KO-Na150-Ca2” and “K150-Na0-Ca2” buffers) at FDSS7000EX instrument and read emitted fluorescence for 130 seconds.
Data analysis was performed with Genedata Screener® software and reported compounds activity as % effect in relation to the normalization standards. The Kinetic Response Value (KRV) is calculated as follows:
KRV=Maximal fluorescence recorded from second 5 to second 130 minus baseline fluorescence, computed as average from second 1 to second 2, of the kinetic trace. The KRV was normalized versus Neutral Controls and Inhibitor Controls in order to obtain the Activity[%] for each well. […] Therefore, the compound activity values were scaled (based on the two references) to a common range (two-point normalization). […]

Cav2.3, sequence (Q15878 1-747 limits assumed): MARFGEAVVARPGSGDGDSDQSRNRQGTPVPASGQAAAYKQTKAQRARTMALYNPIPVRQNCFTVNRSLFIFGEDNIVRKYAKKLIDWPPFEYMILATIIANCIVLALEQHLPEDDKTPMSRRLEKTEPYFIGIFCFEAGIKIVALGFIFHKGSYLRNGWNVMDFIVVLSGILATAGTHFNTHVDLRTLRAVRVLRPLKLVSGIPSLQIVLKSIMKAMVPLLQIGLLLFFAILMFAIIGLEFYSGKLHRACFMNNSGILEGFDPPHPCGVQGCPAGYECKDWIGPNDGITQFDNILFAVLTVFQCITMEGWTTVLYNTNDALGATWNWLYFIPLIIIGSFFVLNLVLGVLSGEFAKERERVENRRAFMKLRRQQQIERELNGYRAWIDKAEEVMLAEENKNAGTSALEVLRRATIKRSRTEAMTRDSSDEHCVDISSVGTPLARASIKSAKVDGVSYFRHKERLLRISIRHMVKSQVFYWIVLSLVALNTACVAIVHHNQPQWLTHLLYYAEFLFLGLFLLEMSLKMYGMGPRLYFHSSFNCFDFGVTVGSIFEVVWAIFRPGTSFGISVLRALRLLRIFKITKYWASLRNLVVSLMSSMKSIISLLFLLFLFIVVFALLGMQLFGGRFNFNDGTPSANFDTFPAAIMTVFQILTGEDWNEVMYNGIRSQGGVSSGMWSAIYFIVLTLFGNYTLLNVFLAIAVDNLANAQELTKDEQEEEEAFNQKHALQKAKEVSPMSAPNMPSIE
Cav2.3, sequence (Q15878 1126-2313 limits assumed): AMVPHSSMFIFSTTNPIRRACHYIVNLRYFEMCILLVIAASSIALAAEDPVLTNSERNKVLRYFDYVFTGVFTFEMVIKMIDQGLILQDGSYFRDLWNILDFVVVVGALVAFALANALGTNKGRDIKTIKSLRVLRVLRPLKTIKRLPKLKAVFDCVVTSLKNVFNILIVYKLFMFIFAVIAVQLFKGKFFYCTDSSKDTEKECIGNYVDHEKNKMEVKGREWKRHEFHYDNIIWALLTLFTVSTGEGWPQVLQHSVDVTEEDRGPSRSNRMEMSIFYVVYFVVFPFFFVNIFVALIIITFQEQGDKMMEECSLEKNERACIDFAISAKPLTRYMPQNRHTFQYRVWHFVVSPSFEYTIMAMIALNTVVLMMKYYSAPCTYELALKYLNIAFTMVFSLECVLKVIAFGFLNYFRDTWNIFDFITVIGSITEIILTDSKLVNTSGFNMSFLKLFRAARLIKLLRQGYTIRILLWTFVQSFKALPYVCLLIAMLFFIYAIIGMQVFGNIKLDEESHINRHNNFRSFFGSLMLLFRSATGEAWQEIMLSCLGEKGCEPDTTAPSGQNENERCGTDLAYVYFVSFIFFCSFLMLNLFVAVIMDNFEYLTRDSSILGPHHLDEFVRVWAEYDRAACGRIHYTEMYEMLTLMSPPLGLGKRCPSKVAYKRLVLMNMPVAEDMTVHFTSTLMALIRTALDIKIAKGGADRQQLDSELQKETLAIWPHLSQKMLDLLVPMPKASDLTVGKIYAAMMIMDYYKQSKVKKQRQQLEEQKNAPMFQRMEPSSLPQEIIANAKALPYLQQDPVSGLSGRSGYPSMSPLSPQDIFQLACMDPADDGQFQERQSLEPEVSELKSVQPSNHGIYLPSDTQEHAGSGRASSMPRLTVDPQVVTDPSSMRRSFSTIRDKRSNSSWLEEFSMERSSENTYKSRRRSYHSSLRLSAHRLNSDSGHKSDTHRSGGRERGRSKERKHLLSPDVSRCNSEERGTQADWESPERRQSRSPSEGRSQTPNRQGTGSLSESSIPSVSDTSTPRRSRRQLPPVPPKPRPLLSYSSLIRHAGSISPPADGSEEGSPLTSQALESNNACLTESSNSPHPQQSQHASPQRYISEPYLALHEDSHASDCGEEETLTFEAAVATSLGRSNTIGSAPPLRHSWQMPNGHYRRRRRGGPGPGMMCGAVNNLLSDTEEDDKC

| Compound | IC50 [µM] |
| --- | --- |
| COCC1CC2(CCC2)CN1S(=O)(=O)c1cccs1 (centres unmarked) [Example 43, 7-(Methoxymethyl)-6-(thiophen-2-ylsulfonyl)-6-azaspiro[3.4]octane] | 10.2 |
| CCC1CC2(CCC2)CN1S(=O)(=O)c1cccs1 (centres unmarked) [Example 69, 7-Ethyl-6-(thiophen-2-ylsulfonyl)-6-azaspiro[3.4]octane] | 2.51 |
| CC(C)Oc1cc(S(=O)(=O)N2CC3(CCC3)CC2C)ccn1 (centres unmarked) [Example 84, 6-((2-Isopropoxypyridin-4-yl)sulfonyl)-7-methyl-6-azaspiro[3.4]octane] | 4.47 |
| Cc1ccc(S(=O)(=O)N2CC3(CCC3)CC2C)o1 (single isomer, unassigned) [Example 55, 7-methyl-6-((5-methylfuran-2-yl)sulfonyl)-6-azaspiro[3.4]octane] | 4.07 |
| Cc1cnc(S(=O)(=O)N2CC3(CCC3)CC2C)s1 (centres unmarked) [Example 95, 5-Methyl-2-((7-methyl-6-azaspiro[3.4]octan-6-yl)sulfonyl)thiazole] | 7.76 |
| CCOc1ccc2nc(S(=O)(=O)N3CC4(CCC4)CC3C)sc2c1 (centres unmarked) [Example 96, 6-Ethoxy-2-((7-methyl-6-azaspiro[3.4]octan-6-yl)sulfonyl)benzo[d]thiazole] | 9.33 |
| CC1CC2(CCC2)CN1S(=O)(=O)c1ccc2ccoc2c1 (single isomer, unassigned) [Example 16, 6-(Benzofuran-6-ylsulfonyl)-7-methyl-6-azaspiro[3.4]octane] | 4.79 |
| CC1CC2(CCN1S(=O)(=O)c1cccs1)CC2 (centres unmarked) [Example 74, 5-Methyl-6-(thiophen-2-ylsulfonyl)-6-azaspiro[2.5]octane] | 6.03 |
| CC1CC2(CCC2)CN1S(=O)(=O)c1ccc(F)s1 (centres unmarked) [Example 110, 6-((5-fluorothiophen-2-yl)sulfonyl)-7-methyl-6-azaspiro[3.4]octane] | 5.01 |
| CC1CCC2(CCC2)CN1S(=O)(=O)c1cccs1 (centres unmarked) [Example 60, 7-Methyl-6-(thiophen-2-ylsulfonyl)-6-azaspiro[3.5]nonane] | 4.79 |
| COCc1ncsc1S(=O)(=O)N1CC2(CCC2)CC1C (centres unmarked) [Example 89, 4-(Methoxymethyl)-5-((7-methyl-6-azaspiro[3.4]octan-6-yl)sulfonyl)thiazole] | 10 |
| CC1CC2(CCC2)CN1S(=O)(=O)c1ccc2c(c1)OCCO2 (single isomer, unassigned) [Example 6, 6-((2,3-Dihydrobenzo[b][1,4]dioxin-6-yl)sulfonyl)-7-methyl-6-azaspiro[3.4]octane] | 7.24 |
| CC1CC2(CCC2)CN1S(=O)(=O)c1ccccc1 (single isomer, unassigned) [Example 47, 7-methyl-6-(phenylsulfonyl)-6-azaspiro[3.4]octane] | 1.58 |
| CCC1CC2(CCC2)CN1S(=O)(=O)c1ccc2ccoc2c1 (centres unmarked) [Example 91, 6-(Benzofuran-6-ylsulfonyl)-7-ethyl-6-azaspiro[3.4]octane] | 2.4 |
| CC1CC2(CCC2)CN1S(=O)(=O)c1nccn1C (centres unmarked) [Example 3, 7-Methyl-6-((1-methyl-1H-imidazol-2-yl)sulfonyl)-6-azaspiro[3.4]octane] | 30.2 |
| CC1CC2(CCC2)CN1S(=O)(=O)c1ccc(C#N)s1 (single isomer, unassigned) [Example 9, 5-((7-Methyl-6-azaspiro[3.4]octan-6-yl)sulfonyl)thiophene-2-carbonitrile] | 7.94 |
| CC1CC2(CCC2)CN1S(=O)(=O)c1ccc2oncc2c1 (centres unmarked) [Example 68, 5-((7-Methyl-6-azaspiro[3.4]octan-6-yl)sulfonyl)benzo[d]isoxazole] | 39.8 |
| Cc1ccc(S(=O)(=O)N2CC3(CCC3)CC2C)s1 (single isomer, unassigned) [Example 77, 7-Methyl-6-((5-methylthiophen-2-yl)sulfonyl)-6-azaspiro[3.4]octane] | 13.8 |

| Compound | IC50 [µM] |
| --- | --- |
| CCC1CC2(CCCC2)CN1S(=O)(=O)c1cccs1 (single isomer, unassigned) [Example 99, 3-ethyl-2-(thiophen-2-ylsulfonyl)-2-azaspiro[4.4]nonane] | 1.91 |
| Cc1ccc(S(=O)(=O)N2CC3(CCC3)CC2C)o1 (single isomer, unassigned) [Example 54, 7-Methyl-6-((5-methylfuran-2-yl)sulfonyl)-6-azaspiro[3.4]octane] | 8.13 |
| CC1CC2(CCC2)CN1S(=O)(=O)c1ccccn1 (centres unmarked) [Example 48, 7-Methyl-6-(pyridin-2-ylsulfonyl)-6-azaspiro[3.4]octane] | 15.8 |
| CCC1CC2(CCC2)CN1S(=O)(=O)c1cccs1 (single isomer, unassigned) [Example 70, 7-Ethyl-6-(thiophen-2-ylsulfonyl)-6-azaspiro[3.4]octane] | 9.55 |
| CC1CC2(CCC2)CN1S(=O)(=O)c1ccncc1 (centres unmarked) [Example 11, 7-Methyl-6-(pyridin-4-ylsulfonyl)-6-azaspiro[3.4]octane] | 3.24 |
| CC1CC2(CCC2)CN1S(=O)(=O)c1ccc(C#N)s1 (centres unmarked) [Example 8, 5-((7-Methyl-6-azaspiro[3.4]octan-6-yl)sulfonyl)thiophene-2-carbonitrile] | 2.57 |
| CC1CC2(CCC2)CN1S(=O)(=O)c1ccc2ccoc2c1 (centres unmarked) [Example 15, 6-(Benzofuran-6-ylsulfonyl)-7-methyl-6-azaspiro[3.4]octane] | 1.86 |
| CC1CC2(CCC2)CN1S(=O)(=O)c1ccco1 (single isomer, unassigned) [Example 38, 6-(furan-2-ylsulfonyl)-7-methyl-6-azaspiro[3.4]octane] | 3.39 |
| CCC1CC2(CCC2)CN1S(=O)(=O)c1ccc2c(c1)CN(C(=O)C(C)C)CC2 (centres unmarked) [Example 34, 1-(7-((7-Ethyl-6-azaspiro[3.4]octan-6-yl)sulfonyl)-3,4-dihydroisoquinolin-2(1H)-yl)-2-methylpropan-1-one] | 1.1 |
| CC1CC2(CCC2)CN1S(=O)(=O)c1ccc(C#N)s1 (single isomer, unassigned) [Example 10, 5-((7-methyl-6-azaspiro[3.4]octan-6-yl)sulfonyl)thiophene-2-carbonitrile] | 2.69 |
| CC1CC2(CCC2)CN1S(=O)(=O)c1cncnc1 (centres unmarked) [Example 83, 7-Methyl-6-(pyrimidin-5-ylsulfonyl)-6-azaspiro[3.4]octane] | 8.91 |
| CC1CC2(CCC2)CN1S(=O)(=O)c1cc(-c2ccccc2)cs1 (centres unmarked) [Example 44, 7-Methyl-6-((4-phenylthiophen-2-yl)sulfonyl)-6-azaspiro[3.4]octane] | 6.76 |
| Cc1noc(C)c1C(=O)N1CCc2ccc(S(=O)(=O)N3CC4(CCC4)CC3C)cc2C1 (centres unmarked) [Example 93, (3,5-Dimethylisoxazol-4-yl)(7-((7-methyl-6-azaspiro[3.4]octan-6-yl)sulfonyl)-3,4-dihydroisoquinolin-2(1H)-yl)methanone] | 2.04 |
| CC1CC2(CCC2)CN1S(=O)(=O)c1ccc2c(c1)OCCCO2 (centres unmarked) [Example 4, 6-((3,4-Dihydro-2H-benzo[b][1,4]dioxepin-7-yl)sulfonyl)-7-methyl-6-azaspiro[3.4]octane] | 4.17 |
| CC1CC2(CCC2)CN1S(=O)(=O)c1ccc2c(c1)CN(C(=O)C(F)(F)F)CC2 (centres unmarked) [Example 18, 2,2,2-Trifluoro-1-(7-((7-methyl-6-azaspiro[3.4]octan-6-yl)sulfonyl)-3,4-dihydroisoquinolin-2(1H)-yl)ethan-1-one] | 2.45 |
| CCC1CC2(CCC2)CN1S(=O)(=O)c1ccc2c(c1)OC(F)(F)O2 (centres unmarked) [Example 50, 6-((2,2-Difluorobenzo[d][1,3]dioxol-5-yl)sulfonyl)-7-ethyl-6-azaspiro[3.4]octane] | 9.33 |
| CC1CC2(CCC2)CN1S(=O)(=O)c1cccs1 (centres unmarked) [Example 102, 7-Methyl-6-(thiophen-2-ylsulfonyl)-6-azaspiro[3.4]octane] | 2.69 |

Source: patent US20250101003A1, “SPIROCYCLIC CAV2.3 ANTAGONISTS” (LARIO THERAPEUTICS LIMITED, priority 2021, published 2025)
